Patent publication US20220315554A1, “COMPOUNDS COMPRISING A […] LIGAND AND USE THEREOF” (priority 2019, published 2022)

Columns and labels:
5-HT2B (h) = 5-HT2B (h) (Homo sapiens, UniProt P41595); details: read-out: Ki Ref, reference compound (positive control)
proteases [1] = molecular target: T1, proteases (Homo sapiens, UniProt P55210); assay: biochemical; details: Caspase-7; reference at 1 μM
T1 construct: BPS Biosciences (contract assay)

proteases [2] = molecular target: T2, proteases (Homo sapiens, UniProt P42574); assay: biochemical; details: Caspase-3; reference at 100 nM
T2 construct: BPS Biosciences (contract assay)

proteases [3] = molecular target: T3, proteases (Hepatitis C virus genotype 2a, UniProt Q99IB8); assay: biochemical; details: serine protease NS3 (a.a. 3-181) from Hepatitis C virus genotype 2a; reference at 100 nM
T3 construct: BPS Biosciences (contract assay)

proteases [4] = molecular target: T4, proteases (Hepatitis C virus genotype 1a, UniProt P27958, D1194V); assay: biochemical; details: serine protease NS3 (a.a. 3-181) from Hepatitis C virus genotype 1a (mutant D168 V); reference at 100 nM
T4 construct: BPS Biosciences (contract assay)

proteases [5] = molecular target: T5, proteases (Hepatitis C virus genotype 1b, UniProt P26663, R1181K); assay: biochemical; details: serine protease NS3 (a.a. 3-181) from Hepatitis C virus genotype 1b (mutant R155K); reference at 100 nM
T5 construct: BPS Biosciences (contract assay)

proteases [6] = molecular target: proteases (Homo sapiens, UniProt P07858); assay: biochemical; details: Cathepsin B; reference at 100 nM
proteases [7] = molecular target: T6, proteases (Homo sapiens, UniProt O60911); assay: biochemical; details: Cathepsin V; reference at 100 nM
T6 construct: BPS Biosciences (contract assay)
T6 sequence (O60911 114-334): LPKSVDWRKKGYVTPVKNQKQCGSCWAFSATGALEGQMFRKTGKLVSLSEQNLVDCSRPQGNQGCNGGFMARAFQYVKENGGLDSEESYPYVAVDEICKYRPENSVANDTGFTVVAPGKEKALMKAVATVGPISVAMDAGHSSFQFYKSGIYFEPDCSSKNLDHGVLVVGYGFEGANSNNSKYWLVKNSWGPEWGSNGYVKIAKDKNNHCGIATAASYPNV

proteases [8] = molecular target: T7, proteases (Homo sapiens, UniProt P07711); assay: biochemical; details: Cathepsin L; reference at 1 μM
T7 construct: BPS Biosciences (contract assay)
T7 sequence (P07711 114-333): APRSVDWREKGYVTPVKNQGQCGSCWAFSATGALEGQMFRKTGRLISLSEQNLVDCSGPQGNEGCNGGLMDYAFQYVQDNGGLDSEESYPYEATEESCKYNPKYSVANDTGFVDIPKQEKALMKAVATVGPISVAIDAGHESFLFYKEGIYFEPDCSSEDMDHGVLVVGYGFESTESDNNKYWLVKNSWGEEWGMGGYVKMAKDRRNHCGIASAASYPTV

proteases [9] = molecular target: T8, proteases (Homo sapiens, UniProt P25774); assay: biochemical; details: Cathepsin S; reference at 100 nM
T8 construct: BPS Biosciences (contract assay)

proteases [10] = molecular target: T9, proteases (Homo sapiens, UniProt Q6V1X1); assay: biochemical; details: DPP8; reference at 200 μM
T9 construct: BPS Biosciences (contract assay)

proteases [11] = molecular target: proteases (Homo sapiens, UniProt Q9UHL4); assay: biochemical; details: DPP7; reference at 200 μM
proteases [12] = molecular target: T10, proteases (Homo sapiens, UniProt P08253); assay: biochemical; details: Matrix metalloprotease 2; reference at 100 nM
T10 construct: BPS Biosciences (contract assay)

proteases [13] = molecular target: T11, proteases (Homo sapiens, UniProt P03956); assay: biochemical; details: Matrix metalloprotease1; reference at 1 μM
T11 construct: BPS Biosciences (contract assay)
T11 sequence (P03956 100-469): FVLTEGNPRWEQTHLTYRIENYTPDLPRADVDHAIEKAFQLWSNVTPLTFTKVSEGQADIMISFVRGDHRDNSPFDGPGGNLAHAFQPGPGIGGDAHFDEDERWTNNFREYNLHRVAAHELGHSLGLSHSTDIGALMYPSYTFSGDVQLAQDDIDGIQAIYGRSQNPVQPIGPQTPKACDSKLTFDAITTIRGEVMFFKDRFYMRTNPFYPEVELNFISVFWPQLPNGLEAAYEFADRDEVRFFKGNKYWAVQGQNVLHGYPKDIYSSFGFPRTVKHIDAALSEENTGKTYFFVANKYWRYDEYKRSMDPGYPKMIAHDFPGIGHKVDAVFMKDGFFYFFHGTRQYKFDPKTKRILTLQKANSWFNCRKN

proteases [14] = molecular target: T12, proteases (Homo sapiens, UniProt P14780, Q279R); assay: biochemical; details: 0.1 µM
T12 construct: BPS Biosciences (contract assay)

proteases [15] = molecular target: T13, proteases (Homo sapiens, UniProt Q12884); assay: biochemical; details: FAP; reference at 100 nM
T13 construct: BPS Biosciences (contract assay)
T13 sequence (Q12884 whole entry): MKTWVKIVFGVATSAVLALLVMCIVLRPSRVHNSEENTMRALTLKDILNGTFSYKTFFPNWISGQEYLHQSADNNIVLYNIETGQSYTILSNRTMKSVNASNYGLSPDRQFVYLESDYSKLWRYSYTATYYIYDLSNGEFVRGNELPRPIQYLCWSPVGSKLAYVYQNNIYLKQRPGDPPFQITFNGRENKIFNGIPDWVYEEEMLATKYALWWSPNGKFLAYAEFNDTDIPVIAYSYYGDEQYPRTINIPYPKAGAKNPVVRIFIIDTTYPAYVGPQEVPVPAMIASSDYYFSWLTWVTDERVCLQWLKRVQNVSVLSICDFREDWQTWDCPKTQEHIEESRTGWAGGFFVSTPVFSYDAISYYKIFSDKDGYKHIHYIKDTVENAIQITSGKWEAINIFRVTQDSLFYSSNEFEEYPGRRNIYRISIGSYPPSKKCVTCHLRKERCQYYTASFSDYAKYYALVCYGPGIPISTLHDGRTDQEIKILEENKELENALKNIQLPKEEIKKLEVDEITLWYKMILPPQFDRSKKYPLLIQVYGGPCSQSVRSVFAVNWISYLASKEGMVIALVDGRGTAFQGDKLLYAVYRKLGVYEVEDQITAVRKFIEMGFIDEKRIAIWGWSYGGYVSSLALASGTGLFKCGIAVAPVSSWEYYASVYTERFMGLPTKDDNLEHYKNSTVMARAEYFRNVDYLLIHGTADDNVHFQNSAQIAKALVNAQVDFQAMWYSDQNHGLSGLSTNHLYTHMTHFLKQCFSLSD

alpha 1A (h) = alpha 1A (h) (Homo sapiens, UniProt P35348); details: read-out: Ki Ref, reference compound (positive control)
HEK-FAP tumors = assay: Efficacy study HEK-FAP tumors; details: throughout the study
Sarc4809 PDX tumors = assay: Efficacy study sarcoma Sarc4809 PDX model; details: throughout the study
proteases [16] = molecular target: T14, proteases (Homo sapiens, UniProt Q14790); assay: biochemical; details: Caspase-8; reference at 100 nM
T14 construct: BPS Biosciences (contract assay)

proteases [17] = molecular target: T15, proteases (Homo sapiens, UniProt P55212); assay: biochemical; details: Caspase-6; reference at 1 μM
T15 construct: BPS Biosciences (contract assay)
T15 sequence (P55212 24-293): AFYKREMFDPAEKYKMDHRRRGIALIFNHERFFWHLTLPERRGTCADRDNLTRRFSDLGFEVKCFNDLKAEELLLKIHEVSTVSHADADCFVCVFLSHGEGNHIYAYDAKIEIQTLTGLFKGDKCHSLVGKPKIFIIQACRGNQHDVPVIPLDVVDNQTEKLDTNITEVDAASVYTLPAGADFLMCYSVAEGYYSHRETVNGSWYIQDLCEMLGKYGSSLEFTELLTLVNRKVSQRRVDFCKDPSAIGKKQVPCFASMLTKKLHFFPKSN

proteases [18] = molecular target: T16, proteases (Homo sapiens, UniProt Q9UBX1); assay: biochemical; details: Cathepsin F; reference at 1 μM
T16 construct: BPS Biosciences (contract assay)

proteases [19] = molecular target: T17, proteases (Homo sapiens, UniProt P15374); assay: biochemical; details: Ubiquitin carboxy-terminal hydrolase L3; reference at 10 nM
T17 construct: BPS Biosciences (contract assay)

proteases [20] = molecular target: T18, proteases (Homo sapiens, UniProt Q93009); assay: biochemical; details: Ubiquitin carboxy-terminal hydrolase 7; reference at 1 μM
T18 construct: BPS Biosciences (contract assay)

proteases [21] = molecular target: T19, proteases (Homo sapiens, UniProt Q14694); assay: biochemical; details: Ubiquitin carboxy-terminal hydrolase 10; reference at 1 μM
T19 construct: BPS Biosciences (contract assay)

proteases [22] = molecular target: T20, proteases (Homo sapiens, UniProt O75604); assay: biochemical; details: Ubiquitin carboxy-terminal hydrolase 2; reference at 1 μM
T20 construct: BPS Biosciences (contract assay)

proteases [23] = molecular target: T21, proteases (Homo sapiens, UniProt P54578); assay: biochemical; details: Ubiquitin carboxy-terminal hydrolase 14; reference at 100 nM
T21 construct: BPS Biosciences (contract assay)
T21 sequence (P54578 whole entry): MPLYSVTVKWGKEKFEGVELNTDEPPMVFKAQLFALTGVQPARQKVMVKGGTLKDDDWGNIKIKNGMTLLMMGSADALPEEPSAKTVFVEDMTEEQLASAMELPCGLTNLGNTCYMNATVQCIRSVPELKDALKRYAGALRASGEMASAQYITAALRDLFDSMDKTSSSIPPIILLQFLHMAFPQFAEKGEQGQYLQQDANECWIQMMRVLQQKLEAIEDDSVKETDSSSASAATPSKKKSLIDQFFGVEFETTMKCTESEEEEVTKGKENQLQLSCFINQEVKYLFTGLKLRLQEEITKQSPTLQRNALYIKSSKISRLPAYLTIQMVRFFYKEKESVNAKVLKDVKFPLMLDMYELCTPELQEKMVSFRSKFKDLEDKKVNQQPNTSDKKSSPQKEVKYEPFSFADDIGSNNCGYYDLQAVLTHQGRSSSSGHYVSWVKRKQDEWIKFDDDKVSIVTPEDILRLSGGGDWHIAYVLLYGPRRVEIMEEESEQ

proteases [24] = molecular target: T22, proteases (Homo sapiens, UniProt P09936); assay: biochemical; details: Ubiquitin carboxy-terminal hydrolase L1; reference at 100 nM
T22 construct: BPS Biosciences (contract assay)
T22 sequence (P09936 whole entry): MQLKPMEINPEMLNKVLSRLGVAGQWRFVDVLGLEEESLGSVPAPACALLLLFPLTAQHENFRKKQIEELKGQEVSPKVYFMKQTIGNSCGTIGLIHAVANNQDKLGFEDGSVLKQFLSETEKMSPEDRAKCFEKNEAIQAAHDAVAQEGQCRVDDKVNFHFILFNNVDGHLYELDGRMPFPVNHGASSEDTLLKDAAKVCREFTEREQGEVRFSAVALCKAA

proteases [25] = molecular target: T23, proteases (Homo sapiens, UniProt Q8N6M0); assay: biochemical; details: Deubiquitinase OTUD6B; reference at 1 μM
T23 construct: BPS Biosciences (contract assay)

proteases [26] = molecular target: T24, proteases (Homo sapiens, UniProt P54252); assay: biochemical; details: Ataxin3; reference at 10 μM
T24 construct: BPS Biosciences (contract assay)
T24 sequence (P54252 whole entry): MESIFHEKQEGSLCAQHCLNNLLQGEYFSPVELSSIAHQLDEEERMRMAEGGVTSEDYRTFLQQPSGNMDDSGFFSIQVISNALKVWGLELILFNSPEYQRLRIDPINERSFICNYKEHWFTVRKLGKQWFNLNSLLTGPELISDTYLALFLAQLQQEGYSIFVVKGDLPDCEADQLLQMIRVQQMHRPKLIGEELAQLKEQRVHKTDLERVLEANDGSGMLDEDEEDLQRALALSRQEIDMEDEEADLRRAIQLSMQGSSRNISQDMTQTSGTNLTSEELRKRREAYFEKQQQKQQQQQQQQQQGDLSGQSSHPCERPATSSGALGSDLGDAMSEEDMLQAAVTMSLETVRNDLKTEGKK

proteases [27] = molecular target: T25, proteases (Homo sapiens, UniProt P40818); assay: biochemical; details: Ubiquitin carboxy-terminal hydrolase 8; reference at 1 μM
T25 construct: BPS Biosciences (contract assay)
T25 sequence (P40818 whole entry): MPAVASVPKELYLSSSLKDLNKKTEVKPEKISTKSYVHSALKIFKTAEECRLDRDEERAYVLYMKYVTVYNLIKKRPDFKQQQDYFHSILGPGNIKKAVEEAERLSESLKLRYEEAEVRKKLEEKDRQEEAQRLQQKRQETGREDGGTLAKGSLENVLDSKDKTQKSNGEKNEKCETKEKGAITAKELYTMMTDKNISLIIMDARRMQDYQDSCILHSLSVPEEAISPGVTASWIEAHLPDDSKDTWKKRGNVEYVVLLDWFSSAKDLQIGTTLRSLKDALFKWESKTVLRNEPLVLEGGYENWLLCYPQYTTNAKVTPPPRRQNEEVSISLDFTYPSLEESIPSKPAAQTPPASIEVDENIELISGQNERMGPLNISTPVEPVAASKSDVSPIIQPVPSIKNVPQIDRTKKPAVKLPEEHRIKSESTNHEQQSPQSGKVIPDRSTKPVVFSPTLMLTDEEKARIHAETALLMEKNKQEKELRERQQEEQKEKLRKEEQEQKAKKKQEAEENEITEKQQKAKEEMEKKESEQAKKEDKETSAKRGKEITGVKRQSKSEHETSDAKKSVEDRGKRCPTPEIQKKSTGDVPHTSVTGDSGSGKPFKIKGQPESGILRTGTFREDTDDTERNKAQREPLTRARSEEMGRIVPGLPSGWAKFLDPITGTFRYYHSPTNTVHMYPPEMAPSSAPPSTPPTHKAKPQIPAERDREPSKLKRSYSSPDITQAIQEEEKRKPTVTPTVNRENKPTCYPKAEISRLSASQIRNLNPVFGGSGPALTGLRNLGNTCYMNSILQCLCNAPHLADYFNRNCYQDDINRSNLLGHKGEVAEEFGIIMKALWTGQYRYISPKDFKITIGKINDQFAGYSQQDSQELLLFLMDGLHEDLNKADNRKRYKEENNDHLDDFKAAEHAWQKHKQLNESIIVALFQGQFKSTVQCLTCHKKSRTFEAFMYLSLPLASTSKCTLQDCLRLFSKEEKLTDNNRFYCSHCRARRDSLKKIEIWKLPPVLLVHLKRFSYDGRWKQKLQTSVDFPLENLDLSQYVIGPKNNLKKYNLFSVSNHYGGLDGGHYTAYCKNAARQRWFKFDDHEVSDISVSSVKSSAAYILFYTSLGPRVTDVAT

proteases [28] = molecular target: T26, proteases (Homo sapiens, UniProt P45974); assay: biochemical; details: Ubiquitin carboxy-terminal hydrolase 5; reference at 1 μM
T26 construct: BPS Biosciences (contract assay)
T26 sequence (P45974 whole entry): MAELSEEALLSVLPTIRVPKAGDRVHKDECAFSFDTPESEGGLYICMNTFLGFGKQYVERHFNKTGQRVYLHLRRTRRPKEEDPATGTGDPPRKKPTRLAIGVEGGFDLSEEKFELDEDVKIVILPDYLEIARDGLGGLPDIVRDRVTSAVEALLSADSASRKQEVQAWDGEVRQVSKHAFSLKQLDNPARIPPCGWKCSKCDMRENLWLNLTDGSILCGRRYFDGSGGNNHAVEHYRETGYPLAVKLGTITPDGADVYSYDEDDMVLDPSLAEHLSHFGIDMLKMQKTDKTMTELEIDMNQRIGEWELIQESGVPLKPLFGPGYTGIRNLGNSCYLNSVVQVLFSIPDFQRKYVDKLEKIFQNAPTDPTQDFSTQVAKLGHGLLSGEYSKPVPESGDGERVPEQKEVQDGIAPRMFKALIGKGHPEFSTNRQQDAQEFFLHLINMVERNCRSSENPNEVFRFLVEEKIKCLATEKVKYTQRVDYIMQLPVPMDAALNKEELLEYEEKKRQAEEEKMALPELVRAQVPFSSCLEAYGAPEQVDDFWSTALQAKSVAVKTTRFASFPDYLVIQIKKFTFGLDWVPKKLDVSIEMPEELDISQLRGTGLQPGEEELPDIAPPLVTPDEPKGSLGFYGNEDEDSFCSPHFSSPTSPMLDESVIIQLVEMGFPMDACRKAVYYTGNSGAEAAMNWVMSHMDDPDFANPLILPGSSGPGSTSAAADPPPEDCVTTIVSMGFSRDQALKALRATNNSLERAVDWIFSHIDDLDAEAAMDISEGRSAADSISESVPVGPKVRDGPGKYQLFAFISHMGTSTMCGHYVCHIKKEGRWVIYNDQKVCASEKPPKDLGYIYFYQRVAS

In the case of COc1cc(CC(C)N)c(OC)cc1I (racemic) [(±)DOI], the Ki (5-HT2B (h)) is reported as 4.2 nM.
COC[C@@H]1CCCN1S(=O)(=O)c1ccc2c(c1)C(=O)C(=O)N2 [Caspase 3/7 Inhibitor I] was tested, and the “Percentage inhibition (%) Reference” value (proteases [1]) was 92% and the “Percentage inhibition (%) Reference” value (proteases [2]) was 89%.
With CC(C)(C)OC(=O)N[C@H]1CCCCC/C=C\[C@@H]2C[C@@]2(C(=O)NS(=O)(=O)C2CC2)NC(=O)[C@@H]2C[C@@H](OC(=O)N3Cc4cccc(F)c4C3)CN2C1=O [Denoprevir] the “Percentage inhibition (%) Reference” value (proteases [3]) was 98%, the “Percentage inhibition (%) Reference” value (proteases [4]) was 94% and the “Percentage inhibition (%) Reference” value (proteases [5]) was 90%.
CC(C)C[C@H](NC(=O)[C@H]1O[C@@H]1C(=O)O)C(=O)NCCCCN=C(N)N [E-64] was tested, and the “Percentage inhibition (%) Reference” value (proteases [6]) was 97%, the “Percentage inhibition (%) Reference” value (proteases [7]) was 83% and the “Percentage inhibition (%) Reference” value (proteases [8]) was 97%. The “Percentage inhibition (%) Reference” value (proteases [9]) was 91%.
N#Cc1ccc(NCCNCC(=O)N2N=CCC2C#N)nc1 (centres unmarked) [KR62436] was tested, and the “Percentage inhibition (%) Reference” value (proteases [10]) was 96% and the “Percentage inhibition (%) Reference” value (proteases [11]) was 83%.
In the case of COc1ccc(S(=O)(=O)N(CC(=O)NO)CC(C)C)cc1 [NNGH], the “Percentage inhibition (%) Reference” value (proteases [12]) is reported as 95%, the “Percentage inhibition (%) Reference” value (proteases [13]) is reported as 87% and the “Percentage inhibition (%) Reference” value (proteases [14]) is reported as 92%.
N#C[C@@H]1CC(F)(F)CN1C(=O)CNC(=O)c1ccnc2ccccc12 [SP-13786] was tested, and the “Percentage inhibition (%) Reference” value (proteases [15]) was 100%.
COc1cccc(OC)c1OCCNCC1COc2ccccc2O1 (centres unmarked) [WB 4101] gave a Ki (alpha 1A (h)) of 0.24 nM.
With CCCCCC(=O)N[C@H]1CSCc2cc(CSCCNC(=O)CN3CCN(CC(=O)O)CCN(CC(=O)O)CCN(CC(=O)O)CC3)cc(c2)CSC[C@@H](C(=O)O)NC(=O)[C@H](Cc2ccccc2)NC(=O)[C@H](CCC(N)=O)NC(=O)[C@H]([C@@H](C)O)NC(=O)[C@@H]2CCCN2C(=O)[C@@H]2CCCN2C1=O [^177Lu-3BP-3554, metal not drawn] the “treatment-related body weight loss” value (HEK-FAP tumors) was “No treatment-related body weight loss” and the “treatment-related body weight loss (BWL)” value (Sarc4809 PDX tumors) was “No treatment-related body weight loss”.
With Caspase 8 Inhibitor I the “Percentage inhibition (%) Reference” value (proteases [16]) was 87% and the “Percentage inhibition (%) Reference” value (proteases [17]) was 94%.
Cystatin C was tested, and the “Percentage inhibition (%) Reference” value (proteases [18]) was 74%.
In the case of Ub-Aldehyde, the “Percentage inhibition (%) Reference” value (proteases [19]) is reported as 95%, the “Percentage inhibition (%) Reference” value (proteases [20]) is reported as 95% and the “Percentage inhibition (%) Reference” value (proteases [21]) is reported as 82%. The “Percentage inhibition (%) Reference” value (proteases [22]) was 91%, the “Percentage inhibition (%) Reference” value (proteases [23]) was 96% and the “Percentage inhibition (%) Reference” value (proteases [24]) was 92%. For the same molecule, the “Percentage inhibition (%) Reference” value (proteases [25]) was 97%, the “Percentage inhibition (%) Reference” value (proteases [26]) was 77% and the “Percentage inhibition (%) Reference” value (proteases [27]) was 73%. The “Percentage inhibition (%) Reference” value (proteases [28]) was 84%.
